How the values were obtained:
[1] = tested on: U266 cells; assay: IncuCyte Zoom NK cell killing of U266; assay type: cell-based, human; conditions: E:T 2:1 and 4:1
Description: (§1) FIGS. 7A-7B illustrate the ability of peripheral blood NK cells with or without B7-H3-TriKE to kill myeloma cells in live imaging IncuCyte Zoom assays. FIG. 7A is a graph showing the effects with effector:target (E:T) ratios of 2:1 and 4:1 on MM1S cells. FIG. 7B is a graph showing the effects with effector:target (E:T) ratios of 2:1 and 4:1 on U266 cells.
as §1, with “8A-8D” for “7A-7B”, “8A is a graph showing the effects with effector:target (E:T) ratios of 2:1 and 4:1 on H929 cells. FIG. 8B” for “7A”, “8C is a graph showing the effects with effector:target (E:T) ratios of 2:1 and 4:1 on RPMI-8226 cells. FIG. 8D” for “7B”
FIGS. 9A-9D illustrate the efficacy of B7-H3-TriKE with the proteasome inhibitor bortezomib (10 nM) and the immunomodulatory drug lenalidomide (5 μM). FIG. 9A is a graph showing the effect of the combination therapy on H929 cells after 48 hours. FIG. 9B is a graph showing the effect of the combination therapy on RPMI-8226 cells after 48 hours. FIG. 9C is a graph showing the effect of the combination therapy on MM1S cells after 48 hours. […]

[2] = tested on: MA-148 ovarian cancer cells; assay: NK cell CD107a / IFNγ flow cytometry against MA-148; assay type: cell-based, human; conditions: vs controls
Description: FIG. 29A is a graph illustrating pooled proportion of NK cells from healthy donors expressing CD107a+ (degranulation) against OVCAR8 and MA148 targets. FIG. 29B is a graph illustrating pooled proportion of NK cells from healthy donors expressing IFNγ cytokine production against OVCAR8 and MA148 targets.
Healthy donor or ovarian cancer PBMC cells were incubated with ovarian tumor targets at 2:1 E:T ratio for 4 hrs with 30 nM TriKE or control condition. FIG. 30A is a graph illustrating pooled proportion of NK cells from healthy donors expressing CD107a+ (degranulation) against OVCAR8 targets (N=8). […] FIG. 30I is a graph illustrating that tumor killing was evaluated using IncuCyte imaging assay. […] The percentage of Live (Nuclight Red+Caspase 3/7−) tumor cells was quantified over a 48-h period and normalized to tumor alone. Readings were obtained every 15 min (representative of four separate experiments). * p<0.05, ** p<0.01, *** p<0.001, and **** p<0.0001.
ADCC was measured in a flow cytometry assay by evaluating degranulation via CD107a (lysosomal-associated membrane protein LAMP-1) and intracellular IFNγ production. […] Samples were washed and evaluated in an LSRII flow cytometer (BD Biosciences, San Jose, CA, USA).
The ability of cam1615B7-H3 TriKE to mediate NK cell activity against ovarian cancer cells was evaluated. […]

B7-H3 TriKE: camelid nanobodies targeting CD16 and B7-H3 joined by IL-15 and two linkers; sequence table equates the name with cam1615B7-H3
NK cell killing of U266 [1]: significantly enhanced killing

cam1615B7-H3: second-generation TriKE: humanized camelid anti-CD16 VHH, human wild-type IL-15, anti-B7-H3 mAb 376.96 scFv; SEQ ID NO:1
NK cell activity against MA-148 ([2]; normal donor NK cells): robust activity | NK cell degranulation against MA-148 ([2]; ovarian-cancer-derived ascites samples): significantly enhanced NK cell degranulation

From US20250145715A1, “B7-H3 TARGETING FUSION PROTEINS AND METHODS OF USE THEREOF” (GT Biopharma, Inc., priority 2021, published 2025)
